These results are taken from ChEMBL document CHEMBL3886684, “Azole compounds as PIM inhibitors” (2016).

Structures are written as SMILES.

In this test the target is Serine/threonine-protein kinase pim-2 (Homo sapiens, UniProt Q9P1W9). The test can be described thus: The phosphorylation of biotinylated-BAD (S112) peptide by full length recombinant Pim-1, Pim-2, or Pim-3 protein was detected with streptavidin:Allophycocyanin (APC) conjugate and a europium (Eu) labeled antibody directed against phosphorylated-BAD (S112). […] A reference compound was included on each assay plate in order to validate that plate; on.

What is called IC50 is the midpoint of a concentration-inhibition curve.

Serine/threonine-protein kinase pim-2, sequence (Q9P1W9 whole entry): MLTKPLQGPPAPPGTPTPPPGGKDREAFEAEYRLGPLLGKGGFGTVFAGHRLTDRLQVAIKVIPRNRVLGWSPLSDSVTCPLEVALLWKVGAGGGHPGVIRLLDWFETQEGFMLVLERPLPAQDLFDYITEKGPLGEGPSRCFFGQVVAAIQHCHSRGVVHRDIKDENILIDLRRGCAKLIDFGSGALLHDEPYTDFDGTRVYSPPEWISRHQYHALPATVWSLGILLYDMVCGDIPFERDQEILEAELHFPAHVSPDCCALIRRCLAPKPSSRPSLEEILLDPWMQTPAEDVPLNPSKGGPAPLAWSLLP

Turning to `CC(C)(C)Nc1nnc(-c2ccc3[nH]cc(C4=CCOCC4)c3c2)o1`, the IC50 amounted to 738 nM.
